What all share (experiment): human MTase selectivity panel
Common to all, as to type: biochemical

Experiment [1] deals with T1, NSD3 (Homo sapiens, UniProt Q9BZ95).
T1 sequence (Q9BZ95 1-1437): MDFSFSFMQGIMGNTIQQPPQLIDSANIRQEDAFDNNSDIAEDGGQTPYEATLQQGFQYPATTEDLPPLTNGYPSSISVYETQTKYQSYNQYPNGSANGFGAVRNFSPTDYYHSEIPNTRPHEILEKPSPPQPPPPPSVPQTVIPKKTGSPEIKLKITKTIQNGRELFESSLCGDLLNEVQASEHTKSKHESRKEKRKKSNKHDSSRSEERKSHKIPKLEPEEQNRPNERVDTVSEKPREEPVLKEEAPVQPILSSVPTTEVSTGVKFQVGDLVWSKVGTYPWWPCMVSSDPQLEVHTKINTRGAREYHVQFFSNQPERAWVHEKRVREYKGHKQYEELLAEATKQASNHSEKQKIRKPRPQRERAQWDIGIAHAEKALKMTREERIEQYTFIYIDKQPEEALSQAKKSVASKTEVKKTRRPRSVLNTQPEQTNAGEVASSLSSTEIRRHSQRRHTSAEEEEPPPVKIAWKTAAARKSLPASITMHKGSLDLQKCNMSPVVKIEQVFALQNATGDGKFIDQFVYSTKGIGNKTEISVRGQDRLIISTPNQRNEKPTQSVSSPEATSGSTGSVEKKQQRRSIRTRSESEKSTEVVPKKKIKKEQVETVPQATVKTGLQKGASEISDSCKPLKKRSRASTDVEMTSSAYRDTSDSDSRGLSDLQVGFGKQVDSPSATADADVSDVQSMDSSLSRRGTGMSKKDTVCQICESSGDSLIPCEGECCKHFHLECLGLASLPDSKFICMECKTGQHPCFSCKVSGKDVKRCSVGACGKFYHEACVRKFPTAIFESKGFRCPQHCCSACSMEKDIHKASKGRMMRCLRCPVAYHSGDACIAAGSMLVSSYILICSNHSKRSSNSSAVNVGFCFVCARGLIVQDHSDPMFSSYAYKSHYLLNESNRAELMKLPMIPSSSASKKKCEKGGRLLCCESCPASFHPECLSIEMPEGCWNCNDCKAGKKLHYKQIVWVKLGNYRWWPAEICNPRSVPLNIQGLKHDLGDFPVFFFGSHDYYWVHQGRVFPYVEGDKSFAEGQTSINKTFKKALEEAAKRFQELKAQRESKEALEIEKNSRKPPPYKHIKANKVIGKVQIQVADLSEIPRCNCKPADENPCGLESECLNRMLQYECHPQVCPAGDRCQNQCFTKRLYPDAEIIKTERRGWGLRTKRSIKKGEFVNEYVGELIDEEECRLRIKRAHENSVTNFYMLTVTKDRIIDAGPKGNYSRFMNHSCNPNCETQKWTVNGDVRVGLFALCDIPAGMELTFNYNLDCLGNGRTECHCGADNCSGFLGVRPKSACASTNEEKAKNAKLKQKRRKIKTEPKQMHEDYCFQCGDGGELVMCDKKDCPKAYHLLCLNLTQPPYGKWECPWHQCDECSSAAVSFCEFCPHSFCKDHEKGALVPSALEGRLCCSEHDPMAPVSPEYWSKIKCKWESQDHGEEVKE

Experiment [2] deals with PRMT3 (Homo sapiens, UniProt O60678).
Experiment [3] deals with T2, PRMT4 (Homo sapiens, UniProt Q86X55).
T2 sequence (Q86X55 1-608): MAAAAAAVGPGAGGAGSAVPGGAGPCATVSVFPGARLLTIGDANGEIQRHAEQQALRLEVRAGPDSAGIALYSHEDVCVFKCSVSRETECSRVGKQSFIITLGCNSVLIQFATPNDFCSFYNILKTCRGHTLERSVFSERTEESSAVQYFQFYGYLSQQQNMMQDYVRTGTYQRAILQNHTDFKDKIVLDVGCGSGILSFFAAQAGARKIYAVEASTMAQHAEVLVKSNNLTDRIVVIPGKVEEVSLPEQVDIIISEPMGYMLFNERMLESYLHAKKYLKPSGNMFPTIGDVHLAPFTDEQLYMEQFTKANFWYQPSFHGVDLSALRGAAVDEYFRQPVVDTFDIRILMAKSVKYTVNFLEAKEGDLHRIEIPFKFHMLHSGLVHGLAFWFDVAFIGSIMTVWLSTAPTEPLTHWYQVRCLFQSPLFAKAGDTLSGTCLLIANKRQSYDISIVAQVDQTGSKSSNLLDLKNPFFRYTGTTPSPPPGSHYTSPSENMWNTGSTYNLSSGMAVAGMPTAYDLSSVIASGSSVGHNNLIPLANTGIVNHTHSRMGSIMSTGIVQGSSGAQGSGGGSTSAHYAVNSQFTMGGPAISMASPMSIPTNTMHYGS

Experiment [4] concerns the target MLL3 (Homo sapiens, UniProt Q8NEZ4).
Experiment [5] addresses PRDM9 (Homo sapiens, UniProt Q9NQV7).
The mark [6] stands for this setting: average ± SD, read-out: Activity (%) at 10 µM Average.
Where [7] appears, read: read-out: Activity (%) at 10 µM Replicate 1.
The mark [8] stands for this setting: read-out: Activity (%) at 10 µM Replicate 2.
Setting [9] is: read-out: Activity (%) at 10 µM Replicate 3.

Each structure is given as a SMILES string. Like-named read-outs stand apart in the source and are kept apart here.

PRDM9, sequence (Q9NQV7 whole entry): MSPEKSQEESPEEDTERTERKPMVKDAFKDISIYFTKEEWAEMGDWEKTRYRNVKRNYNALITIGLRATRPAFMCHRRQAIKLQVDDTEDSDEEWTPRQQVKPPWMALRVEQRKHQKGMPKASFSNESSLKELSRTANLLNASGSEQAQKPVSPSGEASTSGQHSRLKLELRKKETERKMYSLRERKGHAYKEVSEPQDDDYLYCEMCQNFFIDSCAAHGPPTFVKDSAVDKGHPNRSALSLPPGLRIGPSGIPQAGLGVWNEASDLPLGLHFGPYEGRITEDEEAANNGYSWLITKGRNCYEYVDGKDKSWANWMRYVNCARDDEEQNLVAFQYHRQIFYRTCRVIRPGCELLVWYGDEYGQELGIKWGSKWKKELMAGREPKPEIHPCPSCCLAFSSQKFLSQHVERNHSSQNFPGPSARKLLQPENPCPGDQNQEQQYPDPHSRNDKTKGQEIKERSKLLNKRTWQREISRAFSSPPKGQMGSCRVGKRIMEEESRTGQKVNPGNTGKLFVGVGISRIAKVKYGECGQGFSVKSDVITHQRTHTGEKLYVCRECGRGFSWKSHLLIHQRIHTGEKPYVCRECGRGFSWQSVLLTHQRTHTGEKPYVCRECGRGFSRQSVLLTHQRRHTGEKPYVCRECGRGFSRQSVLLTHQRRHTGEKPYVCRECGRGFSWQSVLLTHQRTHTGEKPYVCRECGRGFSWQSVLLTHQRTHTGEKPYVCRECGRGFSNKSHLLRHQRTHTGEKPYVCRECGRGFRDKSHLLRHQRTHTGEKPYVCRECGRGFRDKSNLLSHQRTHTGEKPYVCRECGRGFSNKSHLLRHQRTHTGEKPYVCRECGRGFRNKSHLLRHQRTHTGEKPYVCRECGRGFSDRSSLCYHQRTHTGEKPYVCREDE
PRMT3, sequence (O60678 whole entry): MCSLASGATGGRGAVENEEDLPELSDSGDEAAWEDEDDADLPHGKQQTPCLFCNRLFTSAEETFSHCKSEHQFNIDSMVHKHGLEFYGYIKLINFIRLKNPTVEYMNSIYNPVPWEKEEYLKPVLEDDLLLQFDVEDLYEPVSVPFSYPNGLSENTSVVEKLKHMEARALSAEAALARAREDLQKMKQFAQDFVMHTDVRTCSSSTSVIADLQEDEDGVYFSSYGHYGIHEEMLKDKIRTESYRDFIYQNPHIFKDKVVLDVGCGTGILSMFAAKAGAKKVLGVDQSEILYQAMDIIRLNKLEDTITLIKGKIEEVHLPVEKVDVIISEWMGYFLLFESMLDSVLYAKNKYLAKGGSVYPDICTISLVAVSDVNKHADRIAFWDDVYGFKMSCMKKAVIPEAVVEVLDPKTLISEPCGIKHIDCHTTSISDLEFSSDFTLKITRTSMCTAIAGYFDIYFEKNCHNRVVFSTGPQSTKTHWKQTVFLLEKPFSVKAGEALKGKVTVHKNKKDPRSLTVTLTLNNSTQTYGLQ

In the case of `Nc1ncnc2c1ncn2[C@@H]1O[C@H](CSCc2ccc(Cl)cc2)[C@@H](O)[C@H]1O` [NSC620333], the activity at 10 µM was 110 ± 5% in experiment [1] (setting [6]); 112% in experiment [1] (setting [7]); 104% in experiment [1] (setting [8]); 115% in experiment [1] (setting [9]); 79 ± 5% in experiment [2] (setting [6]); 75% in experiment [2] (setting [7]). The activity at 10 µM turned out to be 78% in experiment [2] (setting [8]); 85% in experiment [2] (setting [9]); 97 ± 3% in experiment [3] (setting [6]); 96% in experiment [3] (setting [7]); 95% in experiment [3] (setting [8]); 101% in experiment [3] (setting [9]). Also, the activity at 10 µM is 51 ± 6% in experiment [4] (setting [6]); 44% in experiment [4] (setting [7]); 57% in experiment [4] (setting [8]); 53% in experiment [4] (setting [9]); 106 ± 3% in experiment [5] (setting [6]); 110% in experiment [5] (setting [7]). Further, the values for the activity at 10 µM in experiment [5] (setting [8]) and in experiment [5] (setting [9]) were 105% and 104%, respectively.

The record behind these values is article doi:10.1101/2023.10.03.560722, “Drug Discovery in Low Data Regimes: Leveraging a Computational Pipeline for the Discovery of Novel SARS-CoV-2 Nsp14-MTase Inhibitors” (bioRxiv, 2024).
